Among the test systems are PC-3; RPMI-8226; SK-MEL-2; HCT-15; UO-31; SF-539; RXF 393; HOP-92; T47D; BT-549; NCI-H460; A498; MDA-MB-231; NCI-H23; Hs-578T; M14; OVCAR-3; K562; EKVX; CAKI-1.
Holding throughout (assay): growth of human tumour cells (NCI), 48 h

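Step 1: Grow cells in 96-well plates. Step 2: Expose to compound for 48 hours at 5 concentrations. Step 3: Interpolate endpoints linearly; if unreached, use highest concentration. Abbreviation: GI50, concentration required for 50% inhibition of growth.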 Calls of active or inactive are those of the source. Cut-off read from the data, not from the text of the source: active = GI50 up to about 1.1 µM and inactive = higher. A value given as a limit tells only on which side of the number the result lay.

With `CC1(C)CC2(C)ON=C(c3ccccc3)N2c2ccccc2N1` (stereo not given), the GI50 with PC-3 was 14.8 µM (inactive); in the assay with RPMI-8226, 29 µM (inactive); in the assay with SK-MEL-2 it was 20.9 µM (inactive); in the assay on HCT-15, 29.6 µM; with UO-31, 18.2 µM (inactive); with SF-539 it was 19.5 µM (inactive). Further, the GI50 with RXF 393 is 20.8 µM (inactive); in the assay with HOP-92 it was 21.6 µM (inactive); in the assay on T47D it was 21.9 µM (inactive); with BT-549 it was 17.8 µM (inactive); with NCI-H460, 20.9 µM (inactive); in the assay on A498 it was 28.6 µM (inactive). Also, the GI50 with MDA-MB-231 was 14.4 µM (inactive); in the assay with NCI-H23 it was 25 µM (inactive); with Hs-578T it was 18.8 µM (inactive); with M14, 19.6 µM (inactive); in the assay with OVCAR-3, 16.5 µM (inactive); in the assay on K562, 19.8 µM (inactive). The results for the GI50 in the assay with EKVX and with CAKI-1 were 24 µM (inactive) and 20.8 µM (inactive), respectively.
Consider `O=c1nc2n(CCO)c(-c3ccccc3)c(-c3ccccc3)nc-2c(=O)[nH]1`, for which the GI50 in the assay with PC-3 was > 100 µM (inactive); in the assay on RPMI-8226, > 100 µM (inactive); in the assay on SK-MEL-2 it was > 100 µM (inactive); in the assay on HCT-15, greater than 100 µM; with UO-31 it was > 100 µM (inactive); in the assay with SF-539 it was > 100 µM (inactive). The GI50 was > 100 µM (inactive) with RXF 393; 88.9 µM (inactive) with HOP-92; > 100 µM (inactive) in the assay on T47D; > 100 µM (inactive) with BT-549; > 100 µM (inactive) in the assay with NCI-H460; > 100 µM (inactive) in the assay on A498. Besides, the GI50 in the assay on MDA-MB-231, in the assay on NCI-H23, in the assay with Hs-578T, in the assay with M14, in the assay with OVCAR-3 and in the assay with K562 was > 100 µM (inactive) in each case. The GI50 in the assay on EKVX and in the assay on CAKI-1 was > 100 µM (inactive) throughout.
As for `CCOC(=O)N1CCC2(CC1)CC(=O)N(Nc1ccccc1)C2=O`, the GI50 in the assay with PC-3 was 40.6 µM (inactive); in the assay with RPMI-8226 it was > 100 µM (inactive); in the assay on SK-MEL-2 it was > 100 µM (inactive); in the assay with HCT-15, greater than 100 µM; with UO-31, 39.9 µM (inactive); with SF-539, 27.5 µM (inactive). Also, the GI50 in the assay on RXF 393 is > 100 µM (inactive); with HOP-92 it was > 100 µM (inactive); in the assay on T47D, 43.5 µM (inactive); in the assay with BT-549 it was > 100 µM (inactive); with NCI-H460 it was 94.4 µM (inactive); in the assay on A498, > 100 µM (inactive). For the same compound, the GI50 with MDA-MB-231 was > 100 µM (inactive); in the assay on NCI-H23, > 100 µM (inactive); in the assay on Hs-578T it was 41.1 µM (inactive); in the assay on M14, > 100 µM (inactive); with OVCAR-3 it was > 100 µM (inactive); with K562 it was 16.9 µM (inactive). In addition, the GI50 in the assay on EKVX and in the assay on CAKI-1 was > 100 µM (inactive) each time.
As to `COC1=CC(=O)c2c(O)c3c(c(O)c2C1=O)C=C(C)OC3O` (stereo not given), the GI50 in the assay on PC-3 was 2.64 µM (inactive); with RPMI-8226, 1.5 µM (inactive); with SK-MEL-2, 1.96 µM (inactive); in the assay on HCT-15 it was 0.349 µM; with UO-31, 4.04 µM (inactive); with SF-539, 1.58 µM (inactive). In addition, the GI50 in the assay with RXF 393 was 1.05 µM (active); in the assay on HOP-92 it was 6.84 µM (inactive); with T47D, 2.13 µM (inactive); with BT-549, 2.07 µM (inactive); in the assay on NCI-H460 it was 1.35 µM (inactive); in the assay with A498 it was 2.12 µM (inactive). Further, the GI50 is 1.76 µM (inactive) in the assay on MDA-MB-231; 0.838 µM (active) in the assay with NCI-H23; 2.64 µM (inactive) in the assay on Hs-578T; 0.281 µM (active) with M14; 1.03 µM (active) with OVCAR-3; 1.44 µM (inactive) with K562. The figures for the GI50 in the assay with EKVX and in the assay on CAKI-1 were 7.35 µM (inactive) and 3.52 µM (inactive), respectively.
As for `COC1CC(OC2CCC3(C)C(CCC45CCC(C6=CC(=O)OC6)C(C)(CCC43)C5=O)C2)OC(C)C1O` (stereo not given), the GI50 with PC-3 is 39.3 µM (inactive); with RPMI-8226, > 10 µM (inactive); with SK-MEL-2, 31.3 µM (inactive); in the assay with HCT-15, 24.3 µM; in the assay with UO-31, 16.5 µM (inactive); in the assay on SF-539, 20.3 µM (inactive). The GI50 in the assay on RXF 393 is 24 µM (inactive); in the assay on HOP-92 it was 81.5 µM (inactive); in the assay on T47D, 30.8 µM (inactive); in the assay on BT-549 it was 20.8 µM (inactive); in the assay on NCI-H460 it was 18 µM (inactive); with A498 it was 71.4 µM (inactive). Also, the GI50 with MDA-MB-231 was > 100 µM (inactive); in the assay with NCI-H23 it was 22.5 µM (inactive); in the assay with Hs-578T, 28.2 µM (inactive); in the assay with M14, > 100 µM (inactive); in the assay with OVCAR-3 it was 27.7 µM (inactive); in the assay on K562, 59.8 µM (inactive). The results for the GI50 in the assay with EKVX and in the assay with CAKI-1 were 32.4 µM (inactive) and 32.6 µM (inactive), respectively.
As for `CC(=O)OC1CC2C(C)(C)C(=O)C=CC2(C)C2CCC3(C)C(c4ccoc4)OC(=O)C4OC43C12C` (stereo not given), the GI50 in the assay with PC-3 is 6.61 µM (inactive); in the assay on RPMI-8226 it was 2.64 µM (inactive); with SK-MEL-2, 13 µM (inactive); in the assay with HCT-15, 5.07 µM; in the assay on UO-31, 4.23 µM (inactive); in the assay with SF-539, 6.55 µM (inactive). The GI50 in the assay on RXF 393 is 4.66 µM (inactive); with HOP-92 it was 14.5 µM (inactive); with T47D it was 12.5 µM (inactive); with BT-549 it was 5.77 µM (inactive); in the assay on NCI-H460, 3.48 µM (inactive); with A498, 24.9 µM (inactive). Also, the GI50 was 3.85 µM (inactive) with MDA-MB-231; 7.53 µM (inactive) with NCI-H23; 3.88 µM (inactive) with Hs-578T; 10.5 µM (inactive) in the assay on M14; 21.6 µM (inactive) in the assay with OVCAR-3; 3.54 µM (inactive) with K562. The GI50 in the assay with EKVX is 22.5 µM (inactive); in the assay with CAKI-1 it was 11.9 µM (inactive).
Take `COc1cc(O)c2c(O)c3c(=O)oc(C)cc3c(OC)c2c1` [PAEPALANTINE]: the GI50 was 28.4 µM (inactive) in the assay with PC-3; 20 µM (inactive) in the assay on RPMI-8226; 31.9 µM (inactive) in the assay on SK-MEL-2; 28.3 µM in the assay with HCT-15; 31.8 µM (inactive) in the assay on UO-31; 21 µM (inactive) with SF-539. The GI50 with RXF 393 was 49.8 µM (inactive); with HOP-92, 16.1 µM (inactive); in the assay on T47D it was 32.4 µM (inactive); in the assay with BT-549, 34.8 µM (inactive); in the assay on NCI-H460, 32.4 µM (inactive); in the assay on A498, 61.7 µM (inactive). The GI50 in the assay with MDA-MB-231 was 28.4 µM (inactive); in the assay on NCI-H23, 23.6 µM (inactive); in the assay with Hs-578T it was 29.6 µM (inactive); in the assay with M14 it was 32 µM (inactive); with OVCAR-3, 27.2 µM (inactive); with K562, 23 µM (inactive). Also, the GI50 with EKVX is 29.9 µM (inactive); in the assay on CAKI-1, 31 µM (inactive).

For the origin of these results see ChEMBL document CHEMBL1201862, “PubChem BioAssay data set” (2004).
